Experimental data as given in patent publication US8404742B2, “Diosmetin compounds, a process for their preparation and pharmaceutical compositions containing them” (Les Laboratories Server, priority 2008, dated 2013).

Tests used:
NADPH oxidase = assay: In vitro inhibition of the activity of NADPH oxidase in HUVEC (angiotensin II, lucigenin luminescence); type: cell-based, human; conditions: 100 μM compound, angiotensin II 1 μM induction, control = 100%, n=3
Description: The study is carried out on human endothelial cells HUVEC (Human Umbilical Vein Endothelial Cells, Clonetics Co). The cells are cultured in an EBM2 medium (Endothelial Basal Medium, Clonetics Co) supplemented with 2% FCS (Fœtal Calf Serum) and EGM2 (Endothelial Growth Medium, Clonetics Co).
The cells are incubated in the presence of solvent (0.1% DMSO, compound of Example 1 control), EBM2 (compound of Example 2 control and compound of Example 3 control), compound of Example 1 (100 μM), compound of Example 2 (100 μM) or compound of Example 3 (100 μM) for 15 minutes and then activated using angiotensin II (1 μM) for 30 minutes in order to activate the NADPH oxidase. The cells are washed with EBM2, and then the NADPH oxidase substrate (NADPH, 200 μM) and lucigenin (25 μM) are added. The reduction in lucigenin by the superoxide anions produced by the NADPH oxidase is quantified using a luminometer. The number of counts per second (cps) of the control groups is compared to the treatment groups. The cps obtained with the control groups are considered as 100% NADPH oxidase activity.
The activity of the compounds of Examples 1, 2 and 3 is evaluated as a function of the number of cps obtained, that activity being greater the lower the number of cps.

washed platelets = assay: In vitro inhibition of platelet aggregation (collagen-induced, washed platelets, turbidimetry); conditions: Oryctolagus cuniculus, read-out: percentage inhibition of platelet aggregation
Description: The platelet-rich plasma is obtained by centrifugation. The platelets are then washed by centrifugation.
The washed platelets are resuspended in a Tyrode buffer. […] After 2 minutes, aggregation is brought about using collagen (4 μg/ml); the response is then recorded for 6 minutes. Platelet aggregation is quantified by means of turbidimetry, that is to say the percentage light that is transmitted through the platelet suspension with respect to a cell containing Tyrode and a cell containing the solvent (0.1% DMSO).

[1] = system: Leukocyte adhesion to the endothelial cells in the post-capillary venules; assay: In vivo inhibition of leukocyte adhesion (ischaemia/reperfusion, hamster cheek pouch); design: species or system hamsters; conditions: 3 mg/kg oral single dose, n=3
Description: Three groups of 3 hamsters, weighing from 90 to 110 g, are used in this study. Thirty minutes before anaesthesia, the hamsters are treated orally with a single dose of placebo (gum arabic 10%), of compound of Example 1 (3 mg/kg) or of reference compound (3 mg/kg). The animals are anaesthetised with pentobarbital 50 mg/kg by intraperitoneal administration. The hamsters are placed under a microscope and the cheek pouch is isolated and immersed in a perfusion solution (NaCl 110.0 mM, KCl 4.7 mM, CaCl2 2.0 mM, MgSO4 1.2 mM, NaHCO3 18.0 mM, Hepes 15.39 mM and Hepes Na^+-salt 14.61 mM), (Duling, The preparation and use of the hamster cheek pouch for studies of the microcirculation, 1973, Microvasc. Res. 5: 423-429; Svensjö et al., The hamster cheek pouch preparation as a model for studies of macromolecular permeability of the microvasculature, 1978, Uppsala J. Med. Sci. 83: 71-79).
Local ischaemia is brought about with the aid of a latex tube fitted at the entrance to the cheek pouch. The intratubular pressure of the tube is increased to 200-220 mm Hg with the aid of a calibrated syringe. This total occlusion is carried out for 30 minutes and then reperfusion is performed for 45 minutes. Leukocyte adhesion to the endothelial cells in the post-capillary venules is quantified in a field of 6 mm^2 immediately after the […] (defined as 100%) and then at different times after reperfusion (0, 15, 30 and 45 minutes).

| Structure (SMILES) | NADPH oxidase activity (%/control group) (NADPH oxidase) [%] | inhibition at 30 µM (washed platelets) [%] | number of leukocytes adhering to endothelial cells in post-capillary venules (number after ischaemia = 100%) ([1]; 0 minutes after reperfusion) [%] | number of leukocytes adhering to endothelial cells in post-capillary venules (number after ischaemia = 100%) ([1]; 15 minutes after reperfusion) [%] | number of leukocytes adhering to endothelial cells in post-capillary venules (number after ischaemia = 100%) ([1]; 30 minutes after reperfusion) [%] | number of leukocytes adhering to endothelial cells in post-capillary venules (number after ischaemia = 100%) ([1]; 45 minutes after reperfusion) [%] |
| --- | --- | --- | --- | --- | --- | --- |
| C=C(C)Cc1c(-c2cc(=O)c3c(O)c(CC(=C)C)c(O)c(CC(=C)C)c3o2)ccc(OC)c1O[C@@H]1O[C@H](C(=O)O)[C@@H](O)[C@H](O)[C@H]1O [Example 3, 3-[5,7-Dihydroxy-6,8-bis(isobut-2-en-1-yl)-4-oxo-4H-chromen-2-yl]-6-methoxy-2-(isobut-2-en-1-yl)phenyl-beta-D-glucuronic acid] | 18.45 ± 4.08 | – | – | – | – | – |
| C=C(C)Cc1c(-c2cc(=O)c3c(O)c(CC(=C)C)c(O[C@@H]4O[C@H](C(=O)O)[C@@H](O)[C@H](O)[C@H]4O)c(CC(=C)C)c3o2)ccc(OC)c1O [Example 2, (5-Hydroxy-2-[3-hydroxy-4-methoxy-2-(isobut-2-en-1-yl)phenyl]-6,8-bis(isobut-2-en-1-yl)-4-oxo-4H-chromen-7-yl)-beta-D-glucuronic acid] | 30.60 ± 4.83 | – | – | – | – | – |
| C=C(C)Cc1c(-c2cc(=O)c3c(O)c(CC(=C)C)c(O)c(CC(=C)C)c3o2)ccc(OC)c1O [Example 1, 6,8,2′-Tris(isobut-2-en-1-yl)diosmetin] | 38.16 ± 3.13 | 36.6 ± 9.9 | 81.7 ± 19.1 | 100 ± 13.7 | 91.0 ± 18.7 | 109.3 ± 23.0 |
